Laboratory results published in patent publication US8481600B2, “Formulation of aspirin that is stable and showing minimal hydrolysis for parenteral administration for the treatment of cardiovascular and other disease states” (Academic Pharmaceuticals, Inc., priority 2007, dated 2013).

Assay: Dissolution of ASA in buffers and solvent systems (clear solution or suspension)
Type: physicochemical
Conditions: for Dissolution of aspirin in buffer: aspirin 10 to 50 mg/ml in 10 ml; for Dissolution of aspirin in solvent system: aspirin up to 75 mg/ml
Procedure: Parenteral solutions comprising aspirin in buffers are typically prepared by mixing the required amount of aspirin in the buffer. The process is preferably carried out at room temperature, although other temperatures are acceptable for these preparations.
ASA (aspirin) was attempted to be dissolved in a number of solvent systems and then stability was determined if these solutions provided clear, colorless dissolution of ASA. In the following buffers aspirin was found riot to be soluble. These buffers are listed below: • 1.
In another series of experiments, dissolution of aspirin in solvents that are listed below were attempted to provide parenteral solutions suitable for intravenous administration comprising an effective amount of aspirin. […] The pH of the solutions ranged from 1.5 to 6.8. Ph adjustments were made using 1N NaOH solution. • 1. To water (2.0 ml), 1-propanol (0.5 ml) and Tween 20 (0.5 ml) was added to aspirin at a concentration level of up to 75 mg/ml. […] To water (2.0 ml), 1-propanol (0.5 ml) and Tween 40 (0.5 ml) was added to aspirin at a concentration level of up to 75 mg/ml. […] To water (2.0 ml), 1-propanol (0.5 ml) and Tween 60 (0.5 ml) was added to aspirin at a concentration level of up to 75 mg/ml. […] To water (2.0 ml), 1-propanol (0.5 ml) and Tween 80 (0.5 ml) was added to aspirin at a concentration level of up to 75 mg/ml. […] To water (2.0 ml), 1-propanol (0.5 ml) and PEG 300 was added to aspirin at a concentration level of up to 75 mg/ml. […] To water (2.0 ml), 1-propanol (0.5 ml) and PEG 400 was added to aspirin at a concentration level of up to 75 mg/ml. […] To water (2.0 ml), 1-propanol (0.5 ml) and PEG 600 was added to aspirin at a concentration level of up to 75 mg/ml. […] To water (2.0 ml), 1-propanol (0.5 ml) and glycerol was added to aspirin at a concentration level of up to 75 mg/ml. […] To water (2.0 ml), DMSO (1-2%) and Tween 20 was added to aspirin at a concentration level of up to 75 mg/ml. […] To water (2.0 ml), DMSO (1-2%) and Tween 40 was added to aspirin at a concentration level of up to 75 mg/ml. […] To water (2.0 ml), DMSO (1-2%) and Tween 60 was added to aspirin at a concentration level of up to 75 mg/ml. […] To water (2.0 ml), DMSO (1-2%) and Tween 80 was added to aspirin at a concentration level of up to 75 mg/ml. […] To glycerine (1 ml), 1-propanol (3 ml) and Tween 80 (0.2 ml) was added to aspirin at a concentration level of up to 75 mg/ml. […] To glycerine (1 ml), 1,2-propanol and Tween 80 (0.2 ml) was added to aspirin at a concentration level, of up to 75 mg/ml. […] To glycerine (1 ml), PEG 300 and Tween 80 (0.2 ml) was added to aspirin at a concentration of up to 75 mg/ml. […] To glycerine (1 ml), PEG 400 and Tween 80 (0.2 ml) was added to aspirin at a concentration of up to 75 mg/ml. […] To glycerine (1 ml), PEG 600 and Tween 80 (0.2 ml) was added to aspirin at a concentration of up to 75 mg/ml.
• 1. To N,N-Dimethylacetamide (NNDMA) (10 ml), aspirin was added at a concentration level of up to 500 mg/ml. […] To N,N-Dimethylacetamide (NNDMA) (10 ml) and ASA, glycerol (0.1 in 10 ml) added, Tween 20 (0.1 in 10 ml) were added. […] To N,N-Dimethylacetamide (NNDMA) (10 ml) and ASA, glycerol (0.1 in 10 ml), Tween 40 (0.1 in 10 ml) were added. […] To N,N-Dimethylacetamide (NNDMA) (10 ml) and ASA, glycerol (0.1 in 10 ml), Tween 60 (0.1 in 10 ml) were added. […] To N,N-Dimethylacetamide (NNDMA) (10 ml) and ASA, glycerol (0.1 in 10 ml), Tween 80 (0.1 in 10 ml) were added. […] To N,N-Dimethylacetamide (NNDMA) (10 ml) and ASA, glycerol (0.1 in 10 ml) were added. […] To N,N-Dimethylacetamide (NNDMA) (10 ml) and ASA, glycerol (0.1 in 10 ml), and DMSO (1-2%) were added. […] To N,N-Dimethylacetamide (NNDMA) (10 ml) and ASA, DMSO (1-2%) was added. […] The amount of aspirin present was greater than 98% at room temperature for 6 months. […]

CC(=O)Oc1ccccc1C(=O)O [ASA, aspirin]
solubility in N,N-dimethylacetamide: readily soluble
Dissolution of ASA in NNDMA and other diluents: appearance (1. N,N-Dimethylacetamide (NNDMA) (10 ml), aspirin up to 500 mg/ml): Clear Purity
Dissolution of ASA in NNDMA and other diluents: appearance (1. N,N-Dimethylacetamide (NNDMA) (10 ml), aspirin up to 500 mg/ml, listed as aspirin): clear solution
Dissolution of ASA in NNDMA and other diluents: appearance (2. NNDMA (10 ml), Glycerol (0.1 in 10 ml), Tween 20 (0.1 in 10 ml)): clear solution
Dissolution of ASA in NNDMA and other diluents: appearance (3. NNDMA (10 ml), Glycerol (0.1 in 10 ml), Tween 40 (0.1 in 10 ml)): clear solution
Dissolution of ASA in NNDMA and other diluents: appearance (4. NNDMA (10 ml), Glycerol (0.1 in 10 ml), Tween 60 (0.1 in 10 ml)): clear solution
Dissolution of ASA in NNDMA and other diluents: appearance (5. NNDMA (10 ml), Glycerol (0.1 in 10 ml), Tween 80 (0.1 in 10 ml)): clear solution
Dissolution of ASA in NNDMA and other diluents: appearance (6. NNDMA (10 ml), Glycerol (0.1 in 10 ml)): clear solution
Dissolution of ASA in NNDMA and other diluents: appearance (7. NNDMA (10 ml), Glycerol (0.1 in 10 ml), DMSO (1-2%)): clear solution
Dissolution of ASA in NNDMA and other diluents: appearance (8. NNDMA (10 ml), DMSO (1.2%) (text: 1-2%)): clear solution
Dissolution of ASA in buffer (AMPSO buffer 0.05 M, aspirin 10 to 50 mg/ml in 10 ml (″ = not soluble), listed as aspirin): suspension that was not clear
Dissolution of ASA in buffer (AMPSO buffer 0.10 M, aspirin 10 to 50 mg/ml in 10 ml (″ = not soluble), listed as aspirin): suspension that was not clear
Dissolution of ASA in buffer (Bicine buffer 0.10 M, aspirin 10 to 50 mg/ml in 10 ml (″ = not soluble), listed as aspirin): suspension that was not clear
Dissolution of ASA in buffer (Bis Tris buffer 0.05 M, aspirin 10 mg/ml to 50 mg/ml in 10 ml): 0.05 M not soluble
Dissolution of ASA in buffer (Bis Tris buffer 0.05 M, aspirin 10 mg/ml to 50 mg/ml in 10 ml, listed as aspirin): suspension that was not clear
Dissolution of ASA in buffer (Bis Tris buffer 0.10 M, aspirin 10 mg/ml to 50 mg/ml in 10 ml): 0.10 M not soluble
Dissolution of ASA in buffer (Bis Tris buffer 0.10 M, aspirin 10 mg/ml to 50 mg/ml in 10 ml, listed as aspirin): suspension that was not clear
Dissolution of ASA in buffer (CAPS buffer 0.05 M, aspirin 10 to 50 mg/ml in 10 ml (″ = not soluble), listed as aspirin): suspension that was not clear
Dissolution of ASA in buffer (CAPS buffer 0.10 M, aspirin 10 to 50 mg/ml in 10 ml (″ = not soluble), listed as aspirin): suspension that was not clear
Dissolution of ASA in buffer (HEPES buffer 0.05 M, aspirin 10 to 50 mg/ml in 10 ml (″ = not soluble), listed as aspirin): suspension that was not clear
Dissolution of ASA in buffer (HEPES buffer 0.10 M, aspirin 10 to 50 mg/ml in 10 ml (″ = not soluble), listed as aspirin): suspension that was not clear
solubility (N,N-dimethylacetamide (NNDMA), organic solvent or mixture, thermodynamic from solid, read-out: concentration at which aspirin was found to be soluble in NNDMA): ≤ 500 mg/mL
Dissolution of ASA in buffer (Saline (normal) 0.10 M, aspirin 10 to 50 mg/ml in 10 ml (″ = not soluble), listed as aspirin): suspension that was not clear
Dissolution of ASA in buffer (TAPS buffer 0.05 M, aspirin 10 to 50 mg/ml in 10 ml (″ = not soluble), listed as aspirin): suspension that was not clear
Dissolution of ASA in buffer (TAPS buffer 0.10 M, aspirin 10 to 50 mg/ml in 10 ml (″ = not soluble), listed as aspirin): suspension that was not clear
Dissolution of ASA in buffer (Tricine buffer 0.10 M, aspirin 10 to 50 mg/ml in 10 ml (″ = not soluble), listed as aspirin): suspension that was not clear
Dissolution of aspirin in buffer (Tricine buffer (0.1M), list item 7): suspension that was not clear
Dissolution of aspirin in buffer (bicine buffer (0.1M), list item 8): suspension that was not clear
Dissolution of aspirin in solvent system (glycerine (1 ml), 1,2-propanol, Tween 80 (0.2 ml)): clear solution
Dissolution of aspirin in solvent system (glycerine (1 ml), 1-propanol (3 ml), Tween 80 (0.2 ml)): clear solution
Dissolution of aspirin in solvent system (glycerine (1 ml), PEG 300, Tween 80 (0.2 ml)): clear solution
Dissolution of aspirin in solvent system (glycerine (1 ml), PEG 400, Tween 80 (0.2 ml)): clear solution
Dissolution of aspirin in solvent system (glycerine (1 ml), PEG 600, Tween 80 (0.2 ml)): clear solution
Dissolution of aspirin in buffer (sodium acetate (pH 6.5 and 3.8) buffer (0.1M), list item 6): suspension that was not clear
Dissolution of aspirin in buffer (sodium acetate pH 6.5 and 3.8 buffer (0.1M), list item 15): suspension that was not clear
Dissolution of aspirin in solvent system (water (2.0 ml), 1-propanol (0.5 ml), PEG 300): clear solution
Dissolution of aspirin in solvent system (water (2.0 ml), 1-propanol (0.5 ml), PEG 400): clear solution
Dissolution of aspirin in solvent system (water (2.0 ml), 1-propanol (0.5 ml), PEG 600): clear solution
Dissolution of aspirin in solvent system (water (2.0 ml), 1-propanol (0.5 ml), Tween 20 (0.5 ml)): clear solution
Dissolution of aspirin in solvent system (water (2.0 ml), 1-propanol (0.5 ml), Tween 40 (0.5 ml)): clear solution
Dissolution of aspirin in solvent system (water (2.0 ml), 1-propanol (0.5 ml), Tween 60 (0.5 ml)): clear solution
Dissolution of aspirin in solvent system (water (2.0 ml), 1-propanol (0.5 ml), Tween 80 (0.5 ml)): clear solution
Dissolution of aspirin in solvent system (water (2.0 ml), 1-propanol (0.5 ml), glycerol): clear solution
Dissolution of aspirin in solvent system (water (2.0 ml), DMSO (1-2%), Tween 20): clear solution
Dissolution of aspirin in solvent system (water (2.0 ml), DMSO (1-2%), Tween 40): clear solution
Dissolution of aspirin in solvent system (water (2.0 ml), DMSO (1-2%), Tween 60): clear solution
Dissolution of aspirin in solvent system (water (2.0 ml), DMSO (1-2%), Tween 80): clear solution
